Laboratory results: the NIST ThermoML archive (doi:10.1021/je800110r)

Conditions: 283.15 K, Liquid, Vibrating tube method

CCCCCCCCCC [decane]
Conditions	mass density [kg/m3]
7092 kPa	742.4
7106 kPa	742.5
7121 kPa	742.6
7134 kPa	742.5
7192 kPa	742.7
7205 kPa	742.5
7258 kPa	742.6
7275 kPa	742.6
7296 kPa	742.6
7315 kPa	742.8
7327 kPa	742.7
7342 kPa	742.7
7357 kPa	742.7
7374 kPa	742.7
7387 kPa	742.8
7404 kPa	742.6
7420 kPa	742.9
7435 kPa	742.8
7452 kPa	742.7
7466 kPa	742.7
7484 kPa	742.8
7505 kPa	742.8
7518 kPa	742.8
7534 kPa	742.8
7548 kPa	742.7
7567 kPa	742.9
7581 kPa	742.8
7595 kPa	742.8
7611 kPa	742.9
7628 kPa	742.9
7643 kPa	742.9
7658 kPa	742.9
7697 kPa	743.1
7710 kPa	743
7722 kPa	743
7735 kPa	743
7783 kPa	743
7795 kPa	743
7814 kPa	743.1
7830 kPa	742.9
7845 kPa	743.1
7855 kPa	743
7867 kPa	743.1
7879 kPa	743.1
7891 kPa	743.1
7903 kPa	743.1
7915 kPa	743
7926 kPa	743.1
7942 kPa	743.2
7957 kPa	743.2
7975 kPa	743.1
7991 kPa	743
8004 kPa	743.1
8018 kPa	743.1
8033 kPa	743.2
8045 kPa	743.2
8060 kPa	743.2
8078 kPa	743.1
8091 kPa	743.2
8112 kPa	743.4
8127 kPa	743.2
8143 kPa	743.3
8159 kPa	743.2
8171 kPa	743.4
8318 kPa	743.4
8332 kPa	743.4
8347 kPa	743.4
8361 kPa	743.3
8376 kPa	743.4
8392 kPa	743.5
8412 kPa	743.4
8430 kPa	743.4
8446 kPa	743.4
8462 kPa	743.4
8478 kPa	743.5
8497 kPa	743.6
8513 kPa	743.5
8529 kPa	743.6
8546 kPa	743.5
8563 kPa	743.6
8580 kPa	743.5
8596 kPa	743.5
8612 kPa	743.6
8631 kPa	743.7
8648 kPa	743.7
8660 kPa	743.6
8677 kPa	743.6
8695 kPa	743.6
8706 kPa	743.7
8720 kPa	743.7
8735 kPa	743.8
8747 kPa	743.7
8762 kPa	743.7
8774 kPa	743.8
8790 kPa	743.7
8804 kPa	743.7
8818 kPa	743.6
8832 kPa	743.9
8862 kPa	743.6
8890 kPa	743.7
9095 kPa	743.9
9109 kPa	743.9
9124 kPa	744
9134 kPa	743.9
9147 kPa	743.8
9162 kPa	744
9174 kPa	744
9189 kPa	743.9
9203 kPa	744.1
9220 kPa	744
9233 kPa	744.1
9250 kPa	744.1
9261 kPa	744
9274 kPa	744.1
9287 kPa	744
9304 kPa	744
9315 kPa	744
9326 kPa	744.1
9337 kPa	744.2
9354 kPa	744.1
9373 kPa	744.2
9384 kPa	744.1
9396 kPa	744.1
9406 kPa	744.2
9419 kPa	744.2
9429 kPa	744.2
9442 kPa	744
9452 kPa	744.2
9464 kPa	744.2
9476 kPa	744.2
9488 kPa	744.1
9499 kPa	744.1
9517 kPa	744.3
9532 kPa	744.2
9543 kPa	744.3
9556 kPa	744.2
9564 kPa	744.3
9577 kPa	744.1
9588 kPa	744.2
9597 kPa	744.3
9605 kPa	744.2
9614 kPa	744.3
9623 kPa	744.3
9633 kPa	744.3
9642 kPa	744.3
9651 kPa	744.3
9663 kPa	744.4
9675 kPa	744.4
9685 kPa	744.4
9695 kPa	744.3
9704 kPa	744.3
9726 kPa	744.3
9736 kPa	744.5
9746 kPa	744.3
9758 kPa	744.3
9766 kPa	744.3
9777 kPa	744.4
9784 kPa	744.2
9795 kPa	744.3
9803 kPa	744.3
9814 kPa	744.5
9822 kPa	744.5
9835 kPa	744.4
9845 kPa	744.4
9855 kPa	744.5
9870 kPa	744.4
9880 kPa	744.4
9892 kPa	744.5
9905 kPa	744.5
9914 kPa	744.5
9923 kPa	744.5
9931 kPa	744.5
9940 kPa	744.5
9949 kPa	744.5
9961 kPa	744.5
9973 kPa	744.5
9982 kPa	744.6
9992 kPa	744.5
10001 kPa	744.6
10013 kPa	744.5
10022 kPa	744.5
10032 kPa	744.6
10042 kPa	744.5
10056 kPa	744.6
10066 kPa	744.7
10076 kPa	744.6
10086 kPa	744.5
10097 kPa	744.5
10108 kPa	744.5
10119 kPa	744.6
10131 kPa	744.6
10144 kPa	744.6
10160 kPa	744.6
10170 kPa	744.6
10185 kPa	744.6
10195 kPa	744.6
10205 kPa	744.6
10215 kPa	744.7
10224 kPa	744.7
10234 kPa	744.6
10242 kPa	744.7
10252 kPa	744.7
10263 kPa	744.8
10274 kPa	744.8
10285 kPa	744.6
10295 kPa	744.7
10305 kPa	744.7
10317 kPa	744.7
10331 kPa	744.7
10342 kPa	744.8
10353 kPa	744.7
10374 kPa	744.8
10384 kPa	744.8
10397 kPa	744.8
10407 kPa	744.8
10445 kPa	744.8
10457 kPa	745
10500 kPa	744.9
10514 kPa	744.9
10540 kPa	744.9
10683 kPa	745
10698 kPa	745.1
10709 kPa	745
10720 kPa	745.1
10735 kPa	745.1
10744 kPa	745
10761 kPa	745
10780 kPa	745
10791 kPa	745.2
10802 kPa	745.1
10816 kPa	745.1
10830 kPa	745
10841 kPa	745.1
10852 kPa	745.2
10867 kPa	745.1
10880 kPa	745.2
10894 kPa	745.2
10907 kPa	745.1
10924 kPa	745.1
10938 kPa	745.2
10953 kPa	745.3
10965 kPa	745.2
10983 kPa	745.2
11010 kPa	745.1
11026 kPa	745.2
11036 kPa	745.2
11049 kPa	745.3
11068 kPa	745.2
11079 kPa	745.3
11097 kPa	745.2
11109 kPa	745.3
11124 kPa	745.3
11134 kPa	745.3
11149 kPa	745.3
11159 kPa	745.2
11173 kPa	745.3
11183 kPa	745.5
11197 kPa	745.3
11207 kPa	745.3
11227 kPa	745.3
11242 kPa	745.4
11258 kPa	745.5
11268 kPa	745.4
11284 kPa	745.4
11299 kPa	745.5
11309 kPa	745.4
11322 kPa	745.4
11339 kPa	745.5
11351 kPa	745.5
11366 kPa	745.5
11378 kPa	745.4
11399 kPa	745.5
11416 kPa	745.6
